Results: PMC5500991, “Substituted arylsulphonamides as inhibitors of perforin-mediated lysis” (European Journal of Medicinal Chemistry, 2017)
Structures can show the parent of a compound that is named as a salt.

melting point [°C] | SMILES
200 to 202 | CN1Cc2cc(-c3ccc(-c4cncc(N(C)S(=O)(=O)c5ccc(F)cc5F)c4)s3)ccc2C1=O [Compound 6, 2,4-Difluoro-N-methyl-N-(5-(5-(2-methyl-1-oxoisoindolin-5-yl)thiophen-2-yl)pyridin-3-yl)-benzenesulphonamide]
260 to 262 | CN1Cc2cc(-c3ccc(-c4cccc(NS(=O)(=O)c5ccc(F)cc5F)c4)s3)ccc2C1=O [Compound 9, 2,4-Difluoro-N-(3-(5-(2-methyl-1-oxoisoindolin-5-yl)thiophen-2-yl)phenyl)benzene sulphonamide]
265 to 268 | Cc1cc(C)n(-c2ccc(S(=O)(=O)Nc3cncc(-c4ccc(-c5ccc6c(c5)CN(C)C6=O)s4)c3)cc2)n1 [Compound 72, 4-(3,5-Dimethyl-1H-pyrazol-1-yl)-N-(5-(5-(2-methyl-1-oxoisoindolin-5-yl)thiophen-2-yl)pyridin-3-yl)benzenesulfonamide]
251 to 254 | CN1Cc2cc(-c3ccc(-c4cncc(NS(=O)(=O)c5ccccc5OC(F)(F)F)c4)s3)ccc2C1=O [Compound 41, N-(5-(5-(2-Methyl-1-oxoisoindolin-5-yl)thiophen-2-yl)pyridin-3-yl)-2-(trifluoromethoxy)benzenesulfonamide]
277 to 280 | Cc1ncsc1S(=O)(=O)Nc1cncc(-c2ccc(-c3ccc4c(c3)CN(C)C4=O)s2)c1 [Compound 74, 4-Methyl-N-(5-(5-(2-methyl-1-oxoisoindolin-5-yl)thiophen-2-yl)pyridin-3-yl)thiazole-5-sulphonamide]
200 to 201 | CN1Cc2cc(-c3ccc(-c4ccc(OC(F)(F)F)c(NS(=O)(=O)c5ccccn5)c4)s3)ccc2C1=O [Compound 18, N-(5-(5-(2-Methyl-1-oxoisoindolin-5-yl)thiophen-2-yl)-2-(trifluoromethoxy)phenyl)pyridine-2-sulfonamide]
280 to 283 | CN1Cc2cc(-c3ccc(-c4cncc(NS(=O)(=O)c5cc(Br)cc(C(F)(F)F)c5)c4)s3)ccc2C1=O [Compound 65, 3-Bromo-N-(5-(5-(2-methyl-1-oxoisoindolin-5-yl)thiophen-2-yl)pyridin-3-yl)-5-(trifluoromethyl)benzenesulphonamide]
293 to 296 | CN1Cc2cc(-c3ccc(-c4cncc(NS(=O)(=O)c5ccc(OC(F)(F)F)cc5)c4)s3)ccc2C1=O [Compound 43, N-(5-(5-(2-Methyl-1-oxoisoindolin-5-yl)thiophen-2-yl)pyridin-3-yl)-4-(trifluoromethoxy)benzenesulfonamide]
272 to 274 | CN1Cc2cc(-c3ccc(-c4cncc(NS(=O)(=O)c5ccc(F)cc5)c4)s3)ccc2C1=O [Compound 24, 4-Fluoro-N-(5-(5-(2-methyl-1-oxoisoindolin-5-yl)thiophen-2-yl)pyridin-3-yl)benzenesulfonamide]
240 to 244 | COc1ccc(S(=O)(=O)Nc2cncc(-c3ccc(-c4ccc5c(c4)CN(C)C5=O)s3)c2)cc1OC (as salt: sodium) [Compound 40, 3,4-Dimethoxy-N-(5-(5-(2-methyl-1-oxoisoindolin-5-yl)thiophen-2-yl)pyridin-3-yl)benzenesulfonamide, sodium salt]
272 to 275 | CN1Cc2cc(-c3ccc(-c4cncc(NS(=O)(=O)c5ccccn5)c4)s3)ccc2C1=O [Compound 66, N-(5-(5-(2-Methyl-1-oxoisoindolin-5-yl)thiophen-2-yl)pyridin-3-yl)pyridine-2-sulfonamide]
277 to 279 | Cc1ccc(S(=O)(=O)Nc2cncc(-c3ccc(-c4ccc5c(c4)CN(C)C5=O)s3)c2)cc1Cl [Compound 63, 3-Chloro-4-methyl-N-(5-(5-(2-methyl-1-oxoisoindolin-5-yl)thiophen-2-yl)pyridin-3-yl)benzenesulfonamide]
283 to 286 | CN1Cc2cc(-c3ccc(-c4cncc(NS(=O)(=O)c5cccnc5)c4)s3)ccc2C1=O [Compound 67, N-(5-(5-(2-Methyl-1-oxoisoindolin-5-yl)thiophen-2-yl)pyridin-3-yl)pyridine-3-sulfonamide]
